Experiment [1] has as its system Primary human fibroblasts derived from IPF patients (LL29 cells) treated with TGF-β1. Put plainly: Inhibition of the fibrotic process: αSMA staining in TGF-β1-treated primary human fibroblasts from IPF patients (LL29 cells). Format: cell-based. The note with it: Fibroblast, 96 h; for EC50: % αSMA-positive LL29 cells, TGF-β1 20 ng/mL, 4 days. An outline of the steps:
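LL29 IPF-patient fibroblasts in 1% FBS stimulated with TGF-β1 (20 ng/mL) and compound (10 μM–1.87 nM, 0.1% DMSO) for 4 days at 37 °C. SYTOX-positive cells excluded; % αSMA-positive cells imaged, normalized to TGF-β1/DMSO wells; EC50 by nonlinear regression, else % inhibition at 10 μM.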

The test system of experiment [2] is Wnt activity (Sp5-Luc reporter, TCF/LEF binding sites) in SW480 colon carcinoma cells. Nature of the experiment: Screening assay for Wnt activity: Sp5-Luc reporter gene assay in stably transduced SW480 colon carcinoma cells. Format: cell-based. The note with it: Homo sapiens; for inhibition at 10 µM: given where EC50 >10 μM, read-out: percent inhibition at 10 μM; for EC50: overnight incubation, 10-point curve from 10 μM. Put shortly:
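SW480 cells stably transduced with a luciferase reporter driven by an Sp5 promoter of eight TCF/LEF sites were plated at 4,000 cells/well in 1% FBS medium. They were exposed overnight at 37° C to a 10-point 1:3 dilution series from 10 μM (0.1% DMSO). Luminescence was normalized to DMSO for four-parameter EC50, or percent inhibition at 10 μM.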
In general terms: A reporter such as luciferase makes a cellular process visible.

Among the data in US10604512B2, “3-(1H-indol-2-yl)-1H-indazoles and therapeutic uses thereof” (Samumed, LLC, priority 2015, dated 2020) are EC50 and inhibition values, retold here.

As a reminder, the EC50 is the concentration needed to bring the measured effect to its halfway point. What is called inhibition is the percentage by which the read-out fell short of the control. As to `Cc1ncc(-c2ccc3[nH]nc(-c4cc5c(-c6ccncc6)cccc5[nH]4)c3c2)n1C` [Compound 601, 5-(1,2-Dimethyl-1H-imidazol-5-yl)-3-(4-(pyridin-4-yl)-1H-indol-2-yl)-1H-indazole], a half-maximal response in experiment [1] (EC50) required 4.19 µM. For the same compound, in experiment [2], the inhibition at 10 µM was 32.4% and the EC50 is above 10 µM.

In the case of `c1cc(N2CCCCC2)c2cc(-c3n[nH]c4ccc(-c5cncc(OC6CCCCC6)c5)cc34)[nH]c2c1` [Compound 635, 5-(5-(Cyclohexyloxy)pyridin-3-yl)-3-(4-(piperidin-1-yl)-1H-indol-2-yl)-1H-indazole], the EC50 in experiment [1] was 2.41 µM; in experiment [2] it was 2.93 µM.

`CN1CCN(c2cccc3[nH]c(-c4n[nH]c5ccc(-c6cncc(NC(=O)CC7CCNCC7)c6)cc45)cc23)CC1` [Compound 669, N-(5-(3-(4-(4-Methylpiperazin-1-yl)-1H-indol-2-yl)-1H-indazol-5-yl)pyridin-3-yl)-2-(piperidin-4-yl)acetamide]: the EC50 in experiment [1] and in experiment [2] was above 10 µM in each case. For the same compound, the inhibition at 10 µM in experiment [1] (at 10 μM, given where EC50 >10 μM, αSMA, LL29 cells, TGF-β1, 4 days, read-out: percent inhibition at 10 μM) is 17.7%; in experiment [2], 11.7%.

Consider `c1ccc2[nH]c(-c3n[nH]c4ccc(-c5cncc(OCCN6CCCC6)c5)cc34)cc2c1` [Compound 686, 3-(1H-Indol-2-yl)-5-(5-(2-(pyrrolidin-1-yl)ethoxy)pyridin-3-yl)-1H-indazole], for which the EC50 is 7.39 µM in experiment [1] and 1.09 µM in experiment [2].

As to `c1cc(-c2ccoc2)c2cc(-c3n[nH]c4ccc(-c5cncc(OC6CCNCC6)c5)cc34)[nH]c2c1` [Compound 716, 3-(4-(Furan-3-yl)-1H-indol-2-yl)-5-(5-(piperidin-4-yloxy)pyridin-3-yl)-1H-indazole], the figures for the EC50 in experiment [1] and in experiment [2] were 9.99 µM and 0.628 µM, respectively.
